Source: patent US11426473B2, “Nitrogen-containing compound or salt thereof, or metal complex thereof” (FUJIFILM Corporation, priority 2013, dated 2022)

Legend:
[1] = test system: U87MG cells subcutaneous tumor; experiment: Concentration of radioactivity in tumor of labeled compounds (Test Example 4); assay type: in vivo, mouse; conditions: tail vein, 111In 740 kBq, 64Cu and 90Y 500 kBq
Description: U87MG cells were subcutaneously transplanted at 1×10^7 cells/mouse to the right flank of Balb/cAJcl-nu/nu (CLEA Japan, Inc. or Japan SLC, Inc., 6 to 9 weeks old). After 2 to 3 weeks, the mice were divided into groups each involving 3 individuals per point in time when their tumors became 200 to 500 mm^3. The ^111In-labeled compound (740 kBq) was administered to the tail veins of the mice.
After a given time, the animals were sacrificed to extract their tumors. The weights of the tumors were measured, and the radioactivity was measured using a gamma counter to calculate the concentration of radioactivity in the tumors (% ID/g). In the same way as above, the concentration of radioactivity in the tumors (% ID/g) was calculated for the ^64Cu-labeled compound (500 kBq) and the ^90Y-labeled compound (500 kBq).

[2] = Absorbed doses in each organ in humans calculated with OLINDA/EXM 1.0 from monkey organ distribution; assay type: in vivo; conditions: calculated with OLINDA/EXM 1.0 from monkey imaging with [111In]-(P2)
Description: (§1) Blood kinetic parameters were calculated with OLINDA/EXM 1.0 from the blood concentration of radioactivity by blood collection over time from a cynomolgus monkey using [^111In]-(P2). Also, absorbed doses in each organ in the case of administration to humans were calculated with OLINDA/EXM 1.0 from organ distribution by imaging using [^111In]-(P2). The radiolabeled compound [^111In]-(P2) (98 MBq/[…]) was administered to a cynomolgus monkey (Hamri Co., Ltd., male, 3 years old, 3.4 kg) under anesthesia. After the administration, blood collection and imaging with a gamma camera were performed over time. The blood collection was carried out 10 minutes, 30 minutes, 60 minutes, 2 hours, 4 hours, 5 hours, 6 hours, 24 hours, 48 hours, 72 hours, and 144 hours after administration. The imaging was carried out 1, 2, 4, 6, 24, 48, 72, and 144 hours after administration with a gamma camera (Symbia, Siemens AG) to take planar images. The anesthesia was carried out using 20 mg/kg ketamine before administration of [^111In]-(P2) and maintained by inhalation anesthesia (2 to 3% isoflurane, 5 to 8 L/min) until the completion of the imaging at 6 hours after administration. At or after 24 hours after administration, blood collection and imaging were performed by the introduction of 20 mg/kg ketamine and 2 mg/kg xylazine. […] The blood kinetic parameters are shown below.

[3] = test system: U87MG cells subcutaneous tumor; experiment: Imaging of integrin-expressing tumor by PET; assay type: in vivo; conditions: at the time of anatomy (48 hours after administration), 4.8 MBq/mouse tail vein
Description: U87MG cells were subcutaneously transplanted at 1×10^7 cells/mouse to the right flank of Balb/cAJcl-nu/nu (CLEA Japan, Inc. or Japan SLC, Inc., male, 6 to 9 weeks old). After 2 weeks, the radiolabeled compound [^64Cu]-(P2) was administered at 4.8 MBq/mouse to the tail veins of mice whose tumors became 250 to 650 mm^3. After 1, 4, 24, and 48 hours, the images were taken in microPET/CT (Inveon, Siemens AG) under isoflurane anesthesia. After the imaging at 48 hours after administration, the mice were euthanized by the collection of the whole blood from the postcava under deep anesthesia with isoflurane, followed by tumor extraction. The weights of the tumors were measured, and the radioactivity was measured using a gamma counter to calculate the concentration of radioactivity in the tumors (% ID/g). In the same way as above, [^64Cu]-(Aa7), [^64Cu]-(Ab9-a), and [^64Cu]-(Ab9-b) were imaged. However, the concentration of radioactivity in the tumors was not calculated. The tumor accumulation was confirmed for all of the compounds 1 hour after administration, and the tumors were visualized up to 48 hours later. […] The concentration of radioactivity in the tumors was 5.6% ID/g at the time of anatomy (48 hours after administration).

[4] = Radiochemical purity after standing at room temperature; assay type: physicochemical
Description: To a mixed solution of compound (P2) (8.5 μg) and a 0.2 mol/L sodium acetate buffer solution (pH 4.0) (1.5 mL), a [^111In] indium chloride solution (80 MBq, 100 μL) was added. The mixture was heated at 100° C. for 15 minutes and then left at room temperature for 5 minutes to obtain radiolabeled compound [^111In]-(P2). […] Its radiochemical purity was 95% or more both immediately after preparation and after standing at room temperature for 24 hours.
To a mixed solution of compound (P2) (79 μg), gentisic acid (1.8 mg), a 0.6 mol/L sodium acetate buffer solution (pH 4.0, 120 μL), and a 0.4 mol/L aqueous sodium hydroxide solution (24 μL), a [^90Y] yttrium chloride solution (700 MBq, 240 μL) was added. The mixture was heated at 100° C. for 20 minutes and then left at room temperature for 5 minutes to obtain radiolabeled compound [^90Y]-(P2). […] Its radiochemical purity was 95% or more both immediately after preparation and after standing at room temperature for 24 hours.
To a mixed solution of compound (P2) ([…]) and a 0.2 mol/L sodium acetate buffer solution (pH 4.0, 219 μL), a [^64Cu] copper chloride solution (pH 5, 35 MBq, 55 μL) was added. The mixture was heated at 100° C. for 15 minutes and then left at room temperature for 5 minutes to obtain radiolabeled compound [^64Cu]-(P2). […] Its radiochemical purity was 90% or more both immediately after preparation and after standing at room temperature for 22 hours.
To a mixed solution of compound (Aa7) (4.2 μg), gentisic acid (1 mg), and a 0.2 mol/L sodium acetate buffer solution (pH 4.0) (5.0 μL), [^64Cu] copper chloride in a 0.2 mol/L sodium acetate buffer solution (pH 4.0) (40 MBq, 155 μL) was added. The mixture was heated at 100° C. for 15 minutes and then left at room temperature for 5 minutes to obtain radiolabeled compound [^64Cu]-(Aa7). […] Its radiochemical purity was 90% or more both immediately after preparation and after standing at room temperature for 24 hours.

[5] = Blood kinetic parameters in monkey; assay type: in vivo; conditions: cynomolgus monkey, blood radioactivity, 98 MBq
Description: as §1

[6] = test system: U87MG cells subcutaneous tumor; experiment: Imaging of integrin-expressing tumor with gamma camera; assay type: in vivo; conditions: 1 MBq/mouse tail vein, 24 hours to 72 hours after administration, FIG. 6
Description: U87MG cells were subcutaneously transplanted at 1×10^7 cells/mouse to the right flank of Balb/cAJcl-nu/nu (CLEA Japan, Inc., male, 6 weeks old). After 2 weeks, a dosing solution of the radiolabeled compound [^111In]-(P2) was administered at 1 MBq/mouse to the tail veins of mice whose tumors became 300 to 600 mm^3. 24, 48, and 72 hours after administration, the planar images were taken with a gamma camera (Symbia, Siemens AG) under isoflurane anesthesia. The radioactivity in the tumors (% ID) was calculated by image analysis.

[7] = test system: U87MG cells intracranial tumor; experiment: Imaging of integrin-expressing tumor, intracranial tumor model; assay type: in vivo; conditions: 1 MBq/mouse tail vein, FIG. 7
Description: U87MG cells were intracranially transplanted at 1×10^7 cells/mouse to Balb/cAJcl-nu/nu (CLEA Japan, Inc., male, 6 weeks old) using a tapered needle. After 2 to 4 weeks, a dosing solution of the radiolabeled compound [^111In]-(P2) was administered at 1 MBq/mouse to the tail veins of the mice. 24, 48, and 72 hours after administration, the planar images were taken with a gamma camera (Symbia, Siemens AG) under isoflurane anesthesia (FIG. 7). After the imaging at the final time point, the brain was extracted, and frozen sections were prepared. Several pieces of the tumor sections were contacted with IP plates, and accumulation images were obtained by autoradiography (ARG). The serial sections were stained with hematoxylin-eosin to confirm tumors.

[8] = Time-dependent planar imaging of monkey; assay type: in vivo; conditions: cynomolgus monkey, from administration to 6 hours later, FIG. 9
Description: as §1, with “below. […]” for “below.”

| Compound | Concentration of radioactivity in tumor ([1]; 4 hours later) | Concentration of radioactivity in tumor ([1]; 24 hours later) | Absorbed dose, Brain [2] | Absorbed dose, Kidney [2] | Absorbed dose, Liver [2] | Absorbed dose, Lung [2] | Absorbed dose, Red bone marrow [2] | Absorbed dose, Small intestine [2] | Absorbed dose, Whole body [2] | further results |
| --- | --- | --- | --- | --- | --- | --- | --- | --- | --- | --- |
| Cc1cc(OCCCC(=O)NCCNC(=O)[C@H](CS(=O)(=O)O)NC(=O)CN2CCN(CC(=O)[O-])CCN(CC(=O)[O-])CCN(CC(=O)O)CC2)cc(C)c1S(=O)(=O)N[C@@H](CNC(=O)CCCCc1ccc2c(n1)NCCC2)C(=O)O.[64Cu+2] [[^64Cu]-(P2)] | 9.25 % ID/g | 8.48 % ID/g | 0.11 mGy/MBq | 0.69 mGy/MBq | 0.09 mGy/MBq | 0.08 mGy/MBq | 0.01 mGy/MBq | 0.06 mGy/MBq | 0.02 mGy/MBq | concentration of radioactivity in the tumors [3]: 5.6 % ID/g; radiochemical purity after standing ([4]; immediately after preparation and after standing at room temperature for 22 hours): ≥ 90% |
| Cc1cc(OCCCC(=O)NCCNC(=O)[C@H](CS(=O)(=O)O)NC(=O)CN2CCN(CC(=O)[O-])CCN(CC(=O)[O-])CCN(CC(=O)[O-])CC2)cc(C)c1S(=O)(=O)N[C@@H](CNC(=O)CCCCc1ccc2c(n1)NCCC2)C(=O)O.[111In+3] [[^111In]-(P2)] | 11.10 % ID/g | 9.62 % ID/g | 0.25 mGy/MBq | 1.19 mGy/MBq | 0.19 mGy/MBq | 0.12 mGy/MBq | 0.05 mGy/MBq | 0.05 mGy/MBq | 0.05 mGy/MBq | AUC [5]: 0.22 % ID · h/mL; CL [5]: 2.17 mL/min/kg; Cmax [5]: 0.018 % ID/mL; T½ α [5]: 0.46 h; T½ β [5]: 19.3 h; Vss [5]: 3.52 L/kg; radioactivity in tumor versus other organs, planar images [6]: radioactivity was higher in the tumor than other organs; accumulation in intracranial tumor by planar imaging and ARG [7]: consistent with the tumor was confirmed; organ accumulation on planar images [8]: accumulation to the bladder and the gallbladder was increased over time; radiochemical purity after standing ([4]; immediately after preparation and after standing at room temperature for 24 hours): ≥ 95% |
